According to US20190105367A1, “ANTIMICROBIAL 4-OXOQUINOLIZINES” (Emergent Product Development Gaithersburg Inc., priority 2011, published 2019):
≈ marks a conversion by molar mass, not a printed value. Where two headings read alike, the source gives them in different places.

What was measured:
A. baumannii NCTC 13301 [1] = assay: MIC without and with sub-inhibitory polymyxin B (Example 4); type: cell-based, Acinetobacter baumannii
A. baumannii A489 [2] = assay: as above; type: cell-based, Acinetobacter baumannii
A. baumannii A14 [3] = assay: as above; type: cell-based, Acinetobacter baumannii; settings: 2nd experiment
A. baumannii A14 [4] = assay: Preliminary MBC without and with sub-inhibitory polymyxin B (Example 4); type: cell-based, Acinetobacter baumannii; settings: 2nd experiment
Method in brief: (§1)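 After plating, cultures are held at 37° C for 18-20 hours; the endpoint is then scored by comparing colony growth against the positive control, with MBC defined as the lowest concentration showing roughly 90% reduction.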

A. baumannii A473 [5] = assay: as above; type: cell-based, Acinetobacter baumannii; settings: Acinetobacter baumannii, A473, A. baumannii A473, +0.06 μg/ml PB, 2nd experiment, read-out: MBC
Method in brief: as §1

A. baumannii NCTC 13301 [6] = assay: as above; type: cell-based, Acinetobacter baumannii; settings: Acinetobacter baumannii
Method in brief: as §1

A. baumannii A390 [7] = assay: as above; type: cell-based, Acinetobacter baumannii; settings: Acinetobacter baumannii, A390, A. baumannii A390, +0.06 μg/ml PB, 2nd experiment, read-out: MBC
Method in brief: as §1

A. baumannii A390 [8] = assay: MIC without and with sub-inhibitory polymyxin B (Example 4); type: cell-based, Acinetobacter baumannii; settings: +0.06 μg/ml PB, 2nd experiment
A. baumannii A472 [9] = assay: as above; type: cell-based, Acinetobacter baumannii; settings: for MIC: Acinetobacter baumannii
A. baumannii NCTC 13301 [10] = assay: as above; type: cell-based, Acinetobacter baumannii; settings: A. baumannii NCTC 13301; +[…] PB; 2nd experiment
A. baumannii ATCC 19606 [11] = assay: Preliminary MBC without and with sub-inhibitory polymyxin B (Example 4); type: cell-based, Acinetobacter baumannii; settings: Acinetobacter baumannii
A. baumannii A329 [12] = assay: as above; type: cell-based, Acinetobacter baumannii; settings: Acinetobacter baumannii, A329, A. baumannii A329, +0.06 μg/ml PB, 2nd experiment, read-out: MBC
A. baumannii ATCC 19606 [13] = assay: MIC without and with sub-inhibitory polymyxin B (Example 4); type: cell-based, Acinetobacter baumannii; settings: for MIC without PB/MIC + PB: A. baumannii ATCC 19606; for MIC: Acinetobacter baumannii
A. baumannii A329 [14] = assay: as above; type: cell-based, Acinetobacter baumannii; settings: +0.06 μg/ml PB, 2nd experiment
A. baumannii A473 [15] = assay: as above; type: cell-based, Acinetobacter baumannii; settings: +0.06 μg/ml PB, 2nd experiment
A. baumannii J2 = assay: as above; type: cell-based, Acinetobacter baumannii; settings: for MIC without PB/MIC + PB: A. baumannii J2; for MIC: Acinetobacter baumannii
A. baumannii A387 [16] = assay: Preliminary MBC without and with sub-inhibitory polymyxin B (Example 4); type: cell-based, Acinetobacter baumannii; settings: Acinetobacter baumannii
[17] = tested on: Acinetobacter sp. (H064200250); assay: MIC without and with sub-inhibitory polymyxin B (Example 4); type: cell-based; settings: for MIC: Acinetobacter
A. baumannii A401 [18] = assay: as above; type: cell-based, Acinetobacter baumannii; settings: for MIC: Acinetobacter baumannii
A. baumannii A387 [19] = assay: as above; type: cell-based, Acinetobacter baumannii; settings: for MIC without PB/MIC + PB: A. baumannii A387; for MIC: Acinetobacter baumannii
A. baumannii A489 [20] = assay: Preliminary MBC without and with sub-inhibitory polymyxin B (Example 4); type: cell-based, Acinetobacter baumannii; settings: Acinetobacter baumannii, preliminary MBC
A. baumannii A472 [21] = assay: as above; type: cell-based, Acinetobacter baumannii; settings: Acinetobacter baumannii
A. baumannii A401 [22] = assay: as above; type: cell-based, Acinetobacter baumannii; settings: Acinetobacter baumannii, A401, A baumannii A 401, +0.06 μg/ml PB, 2nd experiment, read-out: MBC
[23] = A. baumannii A489, +[…] PB, 2nd experiment
[24] = A. baumannii A14, +0.06 μg/ml PB
[25] = ratio, PB 0.06 μg/ml, 1st experiment

## Cc1c(-c2ccc(CN)cc2)c(F)cn2c(=O)c(C(=O)O)cc(C3CC3)c12 [Compound 6, 8-(4-aminomethyl-phenyl)-1-cyclopropyl-7-fluoro-9-methyl-4-oxo-quinolizine-3-carboxylic acid]
A. baumannii NCTC 13301 [1]; A. baumannii NCTC 13301, ratio, PB […], 1st experiment
  MIC without PB/MIC + PB: 32
A. baumannii NCTC 13301 [1]; Acinetobacter baumannii, NCTC13301, read-out: MIC +[…] PB
  MIC: 1 µg/mL (≈ 2.73 µM)
A. baumannii A489 [2]; [23]
  MIC: 0.5 µg/mL (≈ 1.36 µM)
  MIC without PB/MIC + PB: 8
A. baumannii A489 [2]; A. baumannii A489, ratio, PB […], 1st experiment
  MIC without PB/MIC + PB: 16
A. baumannii A489 [2]; Acinetobacter baumannii, A489, read-out: MIC +[…] PB, A. baumannii A489, +[…] polymyxin B, 1st experiment
  MIC: 0.5 µg/mL (≈ 1.36 µM)
A. baumannii A14 [3]; [24]
  MIC: 4 µg/mL (≈ 10.9 µM)
  MIC without PB/MIC + PB: 4
A. baumannii A14 [3]; Acinetobacter baumannii, A14, A. baumannii A14, without PB, read-out: MIC
  MIC: 16 µg/mL (≈ 43.7 µM)
A. baumannii A14 [4]; [24]
  MBC: 8 µg/mL (≈ 21.8 µM)
A. baumannii A14 [4]; Acinetobacter baumannii, A14, A. baumannii A14, without PB, read-out: MBC
  MBC: 16 µg/mL (≈ 43.7 µM)
A. baumannii A473 [5]
  MBC: 2 µg/mL (≈ 5.46 µM)
A. baumannii NCTC 13301 [6]; NCTC13301
  MBC: 2 µg/mL (≈ 5.46 µM)
A. baumannii NCTC 13301 [6]; NCTC13301, read-out: MBC +[…] PB
  MBC: 4 µg/mL (≈ 10.9 µM)
A. baumannii A390 [7]
  MBC: 2 µg/mL (≈ 5.46 µM)
A. baumannii A390 [8]; A. baumannii A390
  MIC without PB/MIC + PB: 8
A. baumannii A390 [8]; Acinetobacter baumannii, A390, A. baumannii A390, read-out: MIC
  MIC: 2 µg/mL (≈ 5.46 µM)
A. baumannii A472 [9]; A. baumannii A472, ratio, PB […], 1st experiment
  MIC without PB/MIC + PB: 16
A. baumannii A472 [9]; A472
  MIC: 1 µg/mL (≈ 2.73 µM)
A. baumannii A472 [9]; A472, read-out: MIC +[…] PB, A. baumannii A472, +[…] polymyxin B, 1st experiment
  MIC: 0.5 µg/mL (≈ 1.36 µM)
A. baumannii NCTC 13301 [10]
  MIC without PB/MIC + PB: 16
A. baumannii ATCC 19606 [11]; ATCC19606, A. baumannii ATCC 19606, +0.06 μg/ml PB, 2nd experiment, read-out: MBC
  MBC: 0.06 µg/mL (≈ 0.164 µM)
A. baumannii ATCC 19606 [11]; ATCC19606, read-out: MBC +0.06 μg/ml PB, A. baumannii ATCC 19606, +0.06 μg/ml polymyxin B, 1st experiment
  MBC: 0.06 µg/mL
A. baumannii A329 [12]
  MBC: 8 µg/mL (≈ 21.8 µM)
A. baumannii ATCC 19606 [13]; +0.06 μg/ml PB, 2nd experiment
  MIC without PB/MIC + PB: 4
A. baumannii ATCC 19606 [13]; [25]
  MIC without PB/MIC + PB: 8
A. baumannii ATCC 19606 [13]; ATCC19606, A. baumannii ATCC 19606, +0.06 μg/ml PB, 2nd experiment, read-out: MIC
  MIC: 0.06 µg/mL (≈ 0.164 µM)
A. baumannii ATCC 19606 [13]; ATCC19606, read-out: MIC +0.06 μg/ml PB, A. baumannii ATCC 19606, +0.06 μg/ml polymyxin B, 1st experiment
  MIC: 0.06 µg/mL
A. baumannii A329 [14]; A. baumannii A329
  MIC without PB/MIC + PB: 2
A. baumannii A329 [14]; Acinetobacter baumannii, A329, A. baumannii A329, read-out: MIC
  MIC: 8 µg/mL (≈ 21.8 µM)
A. baumannii A473 [15]; A. baumannii A473
  MIC without PB/MIC + PB: 4
A. baumannii A473 [15]; Acinetobacter baumannii, A473, A. baumannii A473, read-out: MIC
  MIC: 2 µg/mL (≈ 5.46 µM)
A. baumannii J2; +[…] PB, 2nd experiment
  MIC without PB/MIC + PB: 32
A. baumannii J2; ratio, PB […], 1st experiment
  MIC without PB/MIC + PB: 16
A. baumannii J2; J2
  MIC: 0.25 µg/mL (≈ 0.682 µM)
A. baumannii J2; J2, read-out: MIC +[…] PB, A. baumannii J2, +[…] polymyxin B, 1st experiment
  MIC: 1 µg/mL (≈ 2.73 µM)
A. baumannii A387 [16]; A387, A. baumannii A387, +0.06 μg/ml PB, 2nd experiment, read-out: MBC
  MBC: 1 µg/mL (≈ 2.73 µM)
A. baumannii A387 [16]; A387, read-out: MBC +0.06 μg/ml PB, A. baumannii A387, +0.06 μg/ml polymyxin B, 1st experiment
  MBC: 0.5 µg/mL
[17]
  MIC: 2 µg/mL (≈ 5.46 µM)
[17]; Acinetobacter spp. H064200250 (OXA51), +[…] PB, 2nd experiment
  MIC without PB/MIC + PB: 8
[17]; Acinetobacter spp. H064200250, ratio, PB […], 1st experiment
  MIC without PB/MIC + PB: 2
[17]; read-out: MIC +[…] PB, Acinetobacter spp. H064200250, +[…] polymyxin B, 1st experiment
  MIC: 4 µg/mL (≈ 10.9 µM)
A. baumannii A401 [18]; A baumannii A 401, ratio, PB 0.06 μg/ml, 1st experiment
  MIC without PB/MIC + PB: 4
A. baumannii A401 [18]; A401, A baumannii A 401, +0.06 μg/ml PB, 2nd experiment, read-out: MIC
  MIC: 4 µg/mL (≈ 10.9 µM)
A. baumannii A401 [18]; A401, read-out: MIC +0.06 μg/ml PB, A baumannii A 401, +0.06 μg/ml polymyxin B, 1st experiment
  MIC: 4 µg/mL
A. baumannii A387 [19]; +0.06 μg/ml PB, 2nd experiment
  MIC without PB/MIC + PB: 4
A. baumannii A387 [19]; [25]
  MIC without PB/MIC + PB: 8
A. baumannii A387 [19]; A387, A. baumannii A387, +0.06 μg/ml PB, 2nd experiment, read-out: MIC
  MIC: 1 µg/mL (≈ 2.73 µM)
A. baumannii A387 [19]; A387, read-out: MIC +0.06 μg/ml PB, A. baumannii A387, +0.06 μg/ml polymyxin B, 1st experiment
  MIC: 0.5 µg/mL
A. baumannii A489 [20]; A489, A. baumannii A489, +[…] PB, 2nd experiment, read-out: MBC
  MBC: 0.5 µg/mL (≈ 1.36 µM)
A. baumannii A489 [20]; A489, read-out: MBC +[…] PB, A. baumannii A489, +[…] polymyxin B, 1st experiment
  MBC: 1 µg/mL (≈ 2.73 µM)
A. baumannii A472 [21]; A472
  MBC: 1 µg/mL (≈ 2.73 µM)
A. baumannii A472 [21]; A472, read-out: MBC +[…] PB, A. baumannii A472, +[…] polymyxin B, preliminary MBC, 1st experiment
  MBC: 0.5 µg/mL (≈ 1.36 µM)
A. baumannii A401 [22]
  MBC: 32 µg/mL (≈ 87.3 µM)
